In one assay the target is human TLR7 (Homo sapiens (Human), UniProt Q9NYK1). Description: TLR7 inhibition reporter assay (HEK-Blue SEAP reporter, gardiquimod stimulation). To be noted: HEK-Blue cells overexpressing human TLR7, gardiquimod 7.5 μM. The assay is classed as cell-based.
The next assay deals with human TLR9 (Homo sapiens (Human), UniProt Q9NR96). The experiment in a line: TLR9 inhibition reporter assay (HEK-Blue SEAP reporter, ODN2006 stimulation).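 Note: SEAP reporter under IFN-β minimal promoter with five NF-κB and AP-1 sites, 22 h incubation, compounds 0.05 nM–50 µM, inhibition relative to agonist plus DMSO versus known inhibitor.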 In general terms: Reporter assays use an easily measured gene product as a stand-in for the process of interest.
The next assay has as its target human TLR8 (Homo sapiens (Human), UniProt Q9NR97). The experiment in a line: TLR8 inhibition reporter assay (HEK-Blue SEAP reporter, R848 stimulation).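 Note: SEAP driven by IFN-β minimal promoter with NF-κB and AP-1 sites, 22 h incubation, compounds 0.05 nM–50 µM, inhibition scaled between agonist plus DMSO and reference inhibitor wells.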
The mark [1] stands for this setting: read-out: TLR9 IC50, HEK-Blue cells overexpressing human TLR9, ODN2006 5 nM, SEAP reporter.
Setting [2] is: read-out: TLR8 IC50, HEK-Blue cells overexpressing human TLR8, R848 15.9 μM, SEAP reporter.

Where a name gives a salt, the structure may show the parent alone. Read-outs that look alike come from different tables or passages of the source.

human TLR8, sequence (Q9NR97 27-1041): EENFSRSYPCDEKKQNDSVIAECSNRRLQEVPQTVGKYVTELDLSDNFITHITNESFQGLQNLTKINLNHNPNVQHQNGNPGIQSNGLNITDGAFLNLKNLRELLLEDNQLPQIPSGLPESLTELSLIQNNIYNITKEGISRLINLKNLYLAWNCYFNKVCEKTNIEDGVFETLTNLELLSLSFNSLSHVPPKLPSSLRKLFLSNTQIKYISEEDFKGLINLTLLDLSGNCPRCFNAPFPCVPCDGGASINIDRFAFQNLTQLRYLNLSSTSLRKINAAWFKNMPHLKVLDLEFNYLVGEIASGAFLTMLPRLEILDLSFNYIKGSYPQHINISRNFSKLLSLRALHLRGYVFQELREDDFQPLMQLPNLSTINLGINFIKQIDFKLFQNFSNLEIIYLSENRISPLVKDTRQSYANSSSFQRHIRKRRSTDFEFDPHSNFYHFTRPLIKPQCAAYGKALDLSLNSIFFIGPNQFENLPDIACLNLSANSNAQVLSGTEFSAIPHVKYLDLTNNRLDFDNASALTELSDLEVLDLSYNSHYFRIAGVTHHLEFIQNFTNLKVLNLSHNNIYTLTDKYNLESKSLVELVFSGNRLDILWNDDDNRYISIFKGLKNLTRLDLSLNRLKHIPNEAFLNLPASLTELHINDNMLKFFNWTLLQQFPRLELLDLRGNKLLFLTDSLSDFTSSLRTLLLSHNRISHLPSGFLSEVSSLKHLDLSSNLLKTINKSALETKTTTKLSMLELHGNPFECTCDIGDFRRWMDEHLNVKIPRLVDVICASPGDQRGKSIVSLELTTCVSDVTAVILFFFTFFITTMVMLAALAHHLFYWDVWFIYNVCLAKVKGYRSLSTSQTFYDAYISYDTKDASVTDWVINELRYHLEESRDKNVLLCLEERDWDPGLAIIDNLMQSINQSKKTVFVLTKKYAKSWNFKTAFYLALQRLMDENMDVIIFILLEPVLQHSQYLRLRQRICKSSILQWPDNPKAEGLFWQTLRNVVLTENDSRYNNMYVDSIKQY
human TLR7, sequence (Q9NYK1 27-1049): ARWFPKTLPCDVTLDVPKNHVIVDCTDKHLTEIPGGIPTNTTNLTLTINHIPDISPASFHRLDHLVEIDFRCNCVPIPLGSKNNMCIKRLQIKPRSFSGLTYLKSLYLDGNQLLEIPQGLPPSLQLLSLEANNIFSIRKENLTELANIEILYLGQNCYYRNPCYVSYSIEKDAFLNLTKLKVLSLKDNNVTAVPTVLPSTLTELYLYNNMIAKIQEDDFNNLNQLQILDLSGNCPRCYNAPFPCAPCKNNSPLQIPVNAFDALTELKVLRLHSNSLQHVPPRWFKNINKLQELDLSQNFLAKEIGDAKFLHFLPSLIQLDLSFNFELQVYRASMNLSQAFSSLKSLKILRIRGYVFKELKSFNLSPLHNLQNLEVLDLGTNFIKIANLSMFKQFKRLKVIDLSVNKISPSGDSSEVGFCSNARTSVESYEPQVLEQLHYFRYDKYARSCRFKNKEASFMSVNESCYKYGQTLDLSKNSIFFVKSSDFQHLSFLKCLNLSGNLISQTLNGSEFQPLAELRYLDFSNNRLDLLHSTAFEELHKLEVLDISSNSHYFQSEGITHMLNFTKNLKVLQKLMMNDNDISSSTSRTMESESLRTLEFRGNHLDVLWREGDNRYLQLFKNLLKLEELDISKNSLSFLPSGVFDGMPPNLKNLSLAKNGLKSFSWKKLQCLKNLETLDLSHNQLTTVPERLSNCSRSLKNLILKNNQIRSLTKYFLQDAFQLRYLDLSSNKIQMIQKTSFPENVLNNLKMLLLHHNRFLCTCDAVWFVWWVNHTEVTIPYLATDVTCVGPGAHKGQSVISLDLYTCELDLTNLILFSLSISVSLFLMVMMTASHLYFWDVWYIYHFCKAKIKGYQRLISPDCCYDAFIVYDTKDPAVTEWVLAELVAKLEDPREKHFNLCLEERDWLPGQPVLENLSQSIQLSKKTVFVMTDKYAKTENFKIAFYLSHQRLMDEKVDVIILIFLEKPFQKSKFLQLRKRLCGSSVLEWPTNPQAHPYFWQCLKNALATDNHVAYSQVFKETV
human TLR9, sequence (Q9NR96 26-1032): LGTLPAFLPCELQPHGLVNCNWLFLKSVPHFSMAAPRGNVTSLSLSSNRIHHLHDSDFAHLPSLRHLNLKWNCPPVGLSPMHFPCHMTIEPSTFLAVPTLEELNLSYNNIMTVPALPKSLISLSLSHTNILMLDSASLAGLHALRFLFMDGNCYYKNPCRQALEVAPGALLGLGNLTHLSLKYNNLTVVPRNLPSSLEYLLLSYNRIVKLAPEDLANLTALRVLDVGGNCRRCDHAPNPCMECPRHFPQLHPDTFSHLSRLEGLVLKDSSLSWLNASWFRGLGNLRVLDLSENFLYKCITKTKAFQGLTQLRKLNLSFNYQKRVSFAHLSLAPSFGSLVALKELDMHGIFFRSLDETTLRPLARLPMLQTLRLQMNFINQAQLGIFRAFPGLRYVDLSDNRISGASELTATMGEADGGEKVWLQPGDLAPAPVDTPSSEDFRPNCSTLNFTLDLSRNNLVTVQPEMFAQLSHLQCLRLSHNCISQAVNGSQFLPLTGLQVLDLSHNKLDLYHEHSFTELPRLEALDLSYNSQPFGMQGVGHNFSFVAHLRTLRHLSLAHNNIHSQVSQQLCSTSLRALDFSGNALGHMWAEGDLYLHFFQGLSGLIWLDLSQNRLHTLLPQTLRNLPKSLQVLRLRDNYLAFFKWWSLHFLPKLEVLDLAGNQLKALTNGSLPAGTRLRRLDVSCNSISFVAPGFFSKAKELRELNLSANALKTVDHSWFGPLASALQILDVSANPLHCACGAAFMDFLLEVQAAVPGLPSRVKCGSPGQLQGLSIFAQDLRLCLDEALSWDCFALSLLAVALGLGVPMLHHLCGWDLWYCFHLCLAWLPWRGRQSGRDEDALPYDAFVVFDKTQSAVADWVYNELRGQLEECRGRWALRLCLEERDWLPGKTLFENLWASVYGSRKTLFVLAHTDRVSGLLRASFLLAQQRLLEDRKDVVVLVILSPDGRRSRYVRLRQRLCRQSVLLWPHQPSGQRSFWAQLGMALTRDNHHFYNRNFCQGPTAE

`Cc1cc(-c2[nH]c3ccc(C(=O)N(C)CCO)cc3c2C(C)C)cc(C)n1` [Example 105, 2-(2,6-dimethylpyridin-4-yl)-N-(2-hydroxyethyl)-3-isopropyl-N-methyl-1H-indole-5-carboxamide]: the IC50 against human TLR7 amounted to 0.033 µM; on human TLR9 (setting [1]), 20.8 µM; on human TLR8 (setting [2]), 0.059 µM.
Taken in the same sequence, the figures for `COCCN(C)C(=O)c1ccc2[nH]c(-c3cc(C)nc(C)c3)c(C(C)C)c2c1` [Example 106, 2-(2,6-dimethylpyridin-4-yl)-3-isopropyl-N-(2-methoxyethyl)-N-methyl-1H-indole-5-carboxamide] were 0.051 µM, more than 50 µM and 0.105 µM.
Regarding `Cc1cc(-c2[nH]c3ccc(C(=O)N4CC5CNCC5C4)cc3c2C(C)C)cc(C)n1` (stereo not drawn) [Example 107, (2-(2,6-dimethylpyridin-4-yl)-3-isopropyl-1H-indol-5-yl)(hexahydropyrrolo[3,4-c]pyrrol-2(1H)-yl)methanone, 2 HCl], the results for the IC50 on human TLR7, against human TLR9 and at human TLR8 were 0.073 µM, 0.264 µM and 0.058 µM, respectively.
Regarding `Cc1cc(-c2[nH]c3ccc(C(=O)N4CCNCC4)cc3c2C(C)C)cc(C)n1` [Example 108, (2-(2,6-dimethylpyridin-4-yl)-3-isopropyl-1H-indol-5-yl)(piperazin-1-yl)methanone], the IC50 on human TLR7 was 0.0073 µM; at human TLR9 (setting [1]), 0.247 µM; on human TLR8 (setting [2]) it was 0.0015 µM.
For `Cc1cc(-c2[nH]c3ccc(C(=O)N4CC5CN(C)CC5C4)cc3c2C(C)C)cc(C)n1` (stereo not drawn) [Example 109, (2-(2,6-dimethylpyridin-4-yl)-3-isopropyl-1H-indol-5-yl)(5-methylhexahydropyrrolo[3,4-c]pyrrol-2(1H)-yl)methanone], in that order: 0.018 µM, 0.116 µM and 0.0023 µM.
For `Cc1cc(-c2[nH]c3ccc(C(=O)N4CC5CN(C(C)C)CC5C4)cc3c2C(C)C)cc(C)n1` (stereo not drawn) [Example 110, (2-(2,6-dimethylpyridin-4-yl)-3-isopropyl-1H-indol-5-yl)(5-isopropylhexahydropyrrolo[3,4-c]pyrrol-2(1H)-yl)methanone], in that order: 0.049 µM, 0.41 µM and 0.011 µM.
With `Cc1cc(-c2[nH]c3ccc(C(=O)N4CC5CN(C(=O)CN(C)C)CC5C4)cc3c2C(C)C)cc(C)n1` (stereo not drawn) [Example 111, 2-(dimethylamino)-1-(5-(2-(2,6-dimethylpyridin-4-yl)-3-isopropyl-1H-indole-5-carbonyl)hexahydropyrrolo[3,4-c]pyrrol-2(1H)-yl)ethanone], the figures for the half-inhibitory concentration (IC50) against human TLR7, at human TLR9 (setting [1]) and on human TLR8 (setting [2]) were 0.171 µM, 0.668 µM and 0.074 µM, respectively.
In the case of `Cc1cc(-c2[nH]c3ccc(C(=O)N4CC5CNCC5C4)cc3c2C(C)C)ccn1` (stereo not drawn) [Example 112, (hexahydropyrrolo[3,4-c]pyrrol-2(1H)-yl)(3-isopropyl-2-(2-methylpyridin-4-yl)-1H-indol-5-yl)methanone, HCl], the IC50 worked out at 0.335 µM against human TLR7, 0.334 µM on human TLR9 and 0.036 µM on human TLR8.
Consider `Cc1cc(-c2[nH]c3ccc(C(=O)NC4CCN(C(C)C)CC4)cc3c2C(C)C)ccn1` [Example 113, 3-isopropyl-N-(1-isopropylpiperidin-4-yl)-2-(2-methylpyridin-4-yl)-1H-indole-5-carboxamide], for which the values for the IC50 against human TLR7, on human TLR9 (setting [1]) and at human TLR8 (setting [2]) were 0.05 µM, 1.27 µM and 0.0008 µM, respectively.
Consider `Cc1cc(-c2[nH]c3ccc(C(=O)N4CCCN(C)CC4)cc3c2C(C)C)ccn1` [Example 114, (3-isopropyl-2-(2-methylpyridin-4-yl)-1H-indol-5-yl)(4-methyl-1,4-diazepan-1-yl)methanone], for which the IC50 at human TLR7 was found to be 0.135 µM; on human TLR9 (setting [1]), 3.63 µM; at human TLR8 (setting [2]) it was 0.0024 µM.
Taken in the same sequence, the figures for `Cc1cc(-c2[nH]c3ccc(C(=O)N4CC5CN(C)CC5C4)cc3c2C(C)C)ccn1` (stereo not drawn) [Example 115, (3-isopropyl-2-(2-methylpyridin-4-yl)-1H-indol-5-yl)(5-methylhexahydropyrrolo[3,4-c]pyrrol-2(1H)-yl)methanone] were 0.147 µM, 1.58 µM and 0.0035 µM.
For `Cc1cc(-c2[nH]c3ccc(C(=O)N4CC5CN(C(C)C)CC5C4)cc3c2C(C)C)ccn1` (stereo not drawn) [Example 116, (3-isopropyl-2-(2-methylpyridin-4-yl)-1H-indol-5-yl)(5-isopropylhexahydropyrrolo[3,4-c]pyrrol-2(1H)-yl)methanone], in that order: 0.117 µM, 0.985 µM and 0.0036 µM.
Turning to `Cc1cc(-c2[nH]c3ccc(C(=O)N4CC5CN(CC(=O)N(C)C)CC5C4)cc3c2C(C)C)ccn1` (stereo not drawn) [Example 117, 2-(5-(3-isopropyl-2-(2-methylpyridin-4-yl)-1H-indole-5-carbonyl)hexahydropyrrolo[3,4-c]pyrrol-2(1H)-yl)-N,N-dimethylacetamide], the figures for the IC50 against human TLR7, on human TLR9 (setting [1]) and at human TLR8 (setting [2]) were 0.73 µM, 3.7 µM and 0.02 µM, respectively.
Taken in the same sequence, the figures for `CNC(=O)CN1CC2CN(C(=O)c3ccc4[nH]c(-c5ccnc(C)c5)c(C(C)C)c4c3)CC2C1` (stereo not drawn) [Example 118, 2-(5-(3-isopropyl-2-(2-methylpyridin-4-yl)-1H-indole-5-carbonyl)hexahydropyrrolo[3,4-c]pyrrol-2(1H)-yl)-N-methylacetamide] were 4.05 µM, 22.7 µM and 0.165 µM.
Take `CNCC(=O)N1CC2CN(C(=O)c3ccc4[nH]c(-c5ccnc(C)c5)c(C(C)C)c4c3)CC2C1` (stereo not drawn) [Example 119, 1-(5-(3-isopropyl-2-(2-methylpyridin-4-yl)-1H-indole-5-carbonyl)hexahydropyrrolo[3,4-c]pyrrol-2(1H)-yl)-2-(methylamino)ethanone]: the IC50 was found to be 2.61 µM against human TLR7, 2.23 µM at human TLR9 (setting [1]) and 0.226 µM at human TLR8 (setting [2]).
For the compound `Cc1cc(-c2[nH]c3ccc(C(=O)N4CC5CN(C(=O)CN(C)C)CC5C4)cc3c2C(C)C)ccn1` (stereo not drawn) [Example 120, 2-(dimethylamino)-1-(5-(3-isopropyl-2-(2-methylpyridin-4-yl)-1H-indole-5-carbonyl)hexahydropyrrolo[3,4-c]pyrrol-2(1H)-yl)ethan-1-one], the IC50 against human TLR7 came to 0.87 µM; at human TLR9 (setting [1]) it was 0.752 µM; at human TLR8 (setting [2]) it was 0.047 µM.
Taken in the same sequence, the figures for `CC(C)c1c(-c2ccnc3[nH]ncc23)[nH]c2ccc(C(=O)N3CC4CNCC4C3)cc12` (stereo not drawn) [Example 121, (hexahydropyrrolo[3,4-c]pyrrol-2(1H)-yl)(3-isopropyl-2-(1H-pyrazolo[3,4-b]pyridin-4-yl)-1H-indol-5-yl)methanone, HCl] were 1.6 µM, 3.33 µM and 0.122 µM.
Taken in the same sequence, the figures for `Cc1cc(-c2[nH]c3ccc(C(=O)N4CC5CNCC5C4)cc3c2CC(F)F)cc(C)n1` (stereo not drawn) [Example 122, (3-(2,2-difluoroethyl)-2-(2,6-dimethylpyridin-4-yl)-1H-indol-5-yl)(hexahydropyrrolo [3,4-c]pyrrol-2(1H)-yl)methanone] were 2.26 µM, 1.46 µM and 5.65 µM.
Taken in the same sequence, the figures for `Cc1cc(-c2[nH]c3ccc(C(=O)NC4CCN(C(C)C)CC4)cc3c2CC(F)F)cc(C)n1` [Example 123, 3-(2,2-difluoroethyl)-2-(2,6-dimethylpyridin-4-yl)-N-(1-isopropylpiperidin-4-yl)-1H-indole-5-carboxamide] were 0.083 µM, 0.231 µM and 0.075 µM.

As usually defined, the IC50 is the concentration needed to halve the response being measured.

For the origin of these results see patent publication US11420973B2, “Amide substituted indole compounds useful as TLR inhibitors” (BRISTOL-MYERS SQUIBB COMPANY, priority 2017, dated 2022).
